The target of one assay is T1, Exodeoxyribonuclease V (Escherichia coli (strain K12), UniProt P04993+P07648+P08394).
T1 sequence (P04993 whole entry): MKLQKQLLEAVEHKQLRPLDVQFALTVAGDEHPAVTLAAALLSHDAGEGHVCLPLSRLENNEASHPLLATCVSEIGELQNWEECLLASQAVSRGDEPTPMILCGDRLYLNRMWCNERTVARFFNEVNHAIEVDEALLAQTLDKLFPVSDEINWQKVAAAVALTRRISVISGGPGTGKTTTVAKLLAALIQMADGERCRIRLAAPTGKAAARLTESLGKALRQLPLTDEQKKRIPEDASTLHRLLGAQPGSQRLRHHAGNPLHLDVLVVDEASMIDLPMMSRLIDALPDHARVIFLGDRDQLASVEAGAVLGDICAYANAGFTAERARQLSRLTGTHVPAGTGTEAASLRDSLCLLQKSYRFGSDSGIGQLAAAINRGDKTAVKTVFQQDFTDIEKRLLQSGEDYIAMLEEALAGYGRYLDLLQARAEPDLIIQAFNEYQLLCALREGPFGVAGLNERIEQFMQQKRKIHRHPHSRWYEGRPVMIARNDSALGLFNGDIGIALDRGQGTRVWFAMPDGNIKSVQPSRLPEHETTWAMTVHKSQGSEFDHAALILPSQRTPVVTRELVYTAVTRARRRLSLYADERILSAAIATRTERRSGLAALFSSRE
T1 sequence (P07648 whole entry): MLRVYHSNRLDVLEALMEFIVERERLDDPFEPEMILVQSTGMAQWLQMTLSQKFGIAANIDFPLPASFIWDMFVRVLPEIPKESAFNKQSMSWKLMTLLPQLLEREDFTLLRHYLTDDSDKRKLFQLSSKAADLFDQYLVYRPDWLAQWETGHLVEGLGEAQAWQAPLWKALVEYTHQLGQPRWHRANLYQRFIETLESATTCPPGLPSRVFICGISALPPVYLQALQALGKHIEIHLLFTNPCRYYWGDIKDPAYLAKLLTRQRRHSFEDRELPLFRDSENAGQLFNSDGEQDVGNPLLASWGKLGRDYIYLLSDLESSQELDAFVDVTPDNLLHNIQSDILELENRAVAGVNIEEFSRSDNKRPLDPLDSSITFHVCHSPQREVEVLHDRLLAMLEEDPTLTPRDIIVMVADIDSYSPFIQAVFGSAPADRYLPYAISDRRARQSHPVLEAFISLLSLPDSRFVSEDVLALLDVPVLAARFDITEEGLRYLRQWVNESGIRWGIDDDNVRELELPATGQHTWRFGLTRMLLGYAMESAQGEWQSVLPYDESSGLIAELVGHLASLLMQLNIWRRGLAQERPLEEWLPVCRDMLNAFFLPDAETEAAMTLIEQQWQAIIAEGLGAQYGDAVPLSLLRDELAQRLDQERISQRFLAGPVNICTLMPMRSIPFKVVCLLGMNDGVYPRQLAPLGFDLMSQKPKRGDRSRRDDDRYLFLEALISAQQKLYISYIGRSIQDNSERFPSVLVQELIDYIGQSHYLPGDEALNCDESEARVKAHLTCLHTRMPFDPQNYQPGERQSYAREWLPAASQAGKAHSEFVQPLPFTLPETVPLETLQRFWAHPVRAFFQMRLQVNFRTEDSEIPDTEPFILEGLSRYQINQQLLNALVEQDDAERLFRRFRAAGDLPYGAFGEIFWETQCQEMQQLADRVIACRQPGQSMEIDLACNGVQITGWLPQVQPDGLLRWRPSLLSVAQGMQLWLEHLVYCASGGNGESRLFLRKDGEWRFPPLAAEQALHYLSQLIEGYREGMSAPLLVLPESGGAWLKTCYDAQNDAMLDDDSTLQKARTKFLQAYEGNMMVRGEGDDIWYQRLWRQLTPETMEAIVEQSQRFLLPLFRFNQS
T1 sequence (P08394 whole entry): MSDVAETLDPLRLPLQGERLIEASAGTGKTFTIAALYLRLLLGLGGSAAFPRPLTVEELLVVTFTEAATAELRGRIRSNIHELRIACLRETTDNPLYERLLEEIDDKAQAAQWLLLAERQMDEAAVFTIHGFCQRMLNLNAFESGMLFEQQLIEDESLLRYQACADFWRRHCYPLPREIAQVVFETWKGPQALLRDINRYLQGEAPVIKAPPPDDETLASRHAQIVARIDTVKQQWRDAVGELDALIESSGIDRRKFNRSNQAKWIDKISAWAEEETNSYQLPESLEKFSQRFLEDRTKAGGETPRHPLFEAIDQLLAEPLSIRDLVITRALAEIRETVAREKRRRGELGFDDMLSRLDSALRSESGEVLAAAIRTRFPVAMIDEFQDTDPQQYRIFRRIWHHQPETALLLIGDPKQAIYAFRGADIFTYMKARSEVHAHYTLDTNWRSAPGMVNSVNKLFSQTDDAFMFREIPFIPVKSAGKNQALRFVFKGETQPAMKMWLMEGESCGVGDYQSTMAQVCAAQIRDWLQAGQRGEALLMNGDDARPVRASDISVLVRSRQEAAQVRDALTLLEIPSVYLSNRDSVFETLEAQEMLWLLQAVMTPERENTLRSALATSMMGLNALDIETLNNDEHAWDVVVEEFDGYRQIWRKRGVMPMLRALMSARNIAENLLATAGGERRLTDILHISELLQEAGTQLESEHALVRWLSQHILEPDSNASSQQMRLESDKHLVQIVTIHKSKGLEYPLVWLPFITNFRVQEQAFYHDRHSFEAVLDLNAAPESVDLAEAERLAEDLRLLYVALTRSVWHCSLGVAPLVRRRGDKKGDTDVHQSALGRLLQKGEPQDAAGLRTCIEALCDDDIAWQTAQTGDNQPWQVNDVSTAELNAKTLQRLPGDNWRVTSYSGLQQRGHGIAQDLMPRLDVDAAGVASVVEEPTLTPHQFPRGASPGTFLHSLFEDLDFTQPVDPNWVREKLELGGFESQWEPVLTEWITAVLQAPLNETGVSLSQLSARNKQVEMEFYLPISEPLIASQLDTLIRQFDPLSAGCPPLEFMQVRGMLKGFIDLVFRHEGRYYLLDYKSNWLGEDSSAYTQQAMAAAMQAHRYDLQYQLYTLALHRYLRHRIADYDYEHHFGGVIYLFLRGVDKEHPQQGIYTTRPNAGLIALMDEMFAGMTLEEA
Briefly: RecBCD inhibition via phage-restricted bacterial growth – absorbance, V66 E. coli, mutant T4 phage, counter-screen for AddAB inhibitor project, dose response (AID 492957). Type of assay: functional, cell-based, Escherichia coli str. K-12 substr. MG1655.

The nature of assay [1]: Counterscreen for AddAB inhibitors: absorbance-based bacterial cell-based high throughput dose response assay for inhibitors of bacterial viability. [Related pubchem assays (depositor defined):AID435030, AID449728, AID449731, AID488942, AID488955, AID488956]. It is filed as functional. (A counterscreen serves to expose hits that act by an unwanted route or on another target.)

Assay [2] deals with Nucleotide-binding oligomerization domain-containing protein 2 (Homo sapiens, UniProt Q9HC29). Briefly: PubChem AID 2334. Type of assay: functional.
Sequence of Nucleotide-binding oligomerization domain-containing protein 2 (Q9HC29 whole entry, the tested form may be a part): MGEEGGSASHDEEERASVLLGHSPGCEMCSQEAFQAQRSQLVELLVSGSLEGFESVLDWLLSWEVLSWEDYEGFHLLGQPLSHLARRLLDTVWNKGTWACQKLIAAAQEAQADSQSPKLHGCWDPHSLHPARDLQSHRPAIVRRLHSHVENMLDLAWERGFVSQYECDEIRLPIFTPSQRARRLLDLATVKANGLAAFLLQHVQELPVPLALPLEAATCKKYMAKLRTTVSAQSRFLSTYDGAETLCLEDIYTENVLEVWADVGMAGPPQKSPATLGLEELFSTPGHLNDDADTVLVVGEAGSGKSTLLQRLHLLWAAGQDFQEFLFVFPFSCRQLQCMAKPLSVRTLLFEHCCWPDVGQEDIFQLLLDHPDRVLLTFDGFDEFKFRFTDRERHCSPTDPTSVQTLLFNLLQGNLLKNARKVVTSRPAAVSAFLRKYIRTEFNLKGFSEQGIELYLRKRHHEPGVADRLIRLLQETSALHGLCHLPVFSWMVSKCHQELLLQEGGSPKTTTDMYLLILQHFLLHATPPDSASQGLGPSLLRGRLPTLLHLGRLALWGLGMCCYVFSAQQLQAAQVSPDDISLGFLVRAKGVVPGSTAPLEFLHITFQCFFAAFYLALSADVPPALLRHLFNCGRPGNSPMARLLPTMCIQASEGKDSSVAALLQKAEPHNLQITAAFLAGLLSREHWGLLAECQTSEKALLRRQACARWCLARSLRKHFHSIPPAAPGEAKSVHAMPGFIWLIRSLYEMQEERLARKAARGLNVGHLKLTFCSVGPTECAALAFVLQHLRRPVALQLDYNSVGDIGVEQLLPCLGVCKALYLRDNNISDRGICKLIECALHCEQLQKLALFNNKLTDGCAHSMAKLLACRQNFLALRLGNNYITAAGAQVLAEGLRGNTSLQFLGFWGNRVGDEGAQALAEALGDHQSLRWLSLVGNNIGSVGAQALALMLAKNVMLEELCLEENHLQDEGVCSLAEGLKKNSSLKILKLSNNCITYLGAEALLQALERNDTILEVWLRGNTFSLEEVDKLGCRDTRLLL
The nature of assay [3]: HepG2 cell cytotoxicity, dose response, cytotoxicity control for non-replicating M. tuberculosis project (AID 489018). The following applies: Mycobacterium tuberculosis. Type of assay: functional.
A short description of assay [4]: Vero E6 cell cytotoxicity, dose response, cytotoxicity control for non-replicating M. tuberculosis project, secondary assay (AID 492998). The note with it: Vero C1008. It is filed as functional, VeroE6.
Assay [5] concerns the target T2, Nucleotide-binding oligomerization domain-containing protein 1 (Homo sapiens, UniProt Q9Y239).
T2 sequence (Q9Y239 whole entry): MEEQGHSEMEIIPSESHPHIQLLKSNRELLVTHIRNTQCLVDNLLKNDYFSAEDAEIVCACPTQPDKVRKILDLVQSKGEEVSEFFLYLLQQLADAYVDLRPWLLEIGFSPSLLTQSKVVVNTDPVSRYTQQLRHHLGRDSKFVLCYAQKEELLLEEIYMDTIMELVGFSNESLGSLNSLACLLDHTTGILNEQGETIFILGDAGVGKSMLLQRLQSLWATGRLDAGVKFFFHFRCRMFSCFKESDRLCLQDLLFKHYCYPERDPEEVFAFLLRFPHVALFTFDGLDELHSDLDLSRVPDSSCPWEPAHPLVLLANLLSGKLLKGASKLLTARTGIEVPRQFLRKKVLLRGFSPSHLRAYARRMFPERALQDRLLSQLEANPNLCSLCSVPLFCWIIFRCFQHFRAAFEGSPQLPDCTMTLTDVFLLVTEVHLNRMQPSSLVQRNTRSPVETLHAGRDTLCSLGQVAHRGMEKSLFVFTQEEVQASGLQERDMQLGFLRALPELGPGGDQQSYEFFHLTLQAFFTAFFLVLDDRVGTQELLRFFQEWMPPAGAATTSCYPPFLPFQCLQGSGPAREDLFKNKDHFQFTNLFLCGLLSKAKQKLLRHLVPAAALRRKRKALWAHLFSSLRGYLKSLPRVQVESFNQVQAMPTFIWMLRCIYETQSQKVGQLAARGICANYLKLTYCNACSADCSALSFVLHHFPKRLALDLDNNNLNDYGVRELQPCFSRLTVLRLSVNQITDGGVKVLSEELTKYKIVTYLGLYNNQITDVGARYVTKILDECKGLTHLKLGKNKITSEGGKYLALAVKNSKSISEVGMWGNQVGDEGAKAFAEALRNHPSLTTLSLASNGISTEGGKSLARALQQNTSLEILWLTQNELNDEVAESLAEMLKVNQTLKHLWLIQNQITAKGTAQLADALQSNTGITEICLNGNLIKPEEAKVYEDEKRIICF
Briefly: blockers of NOD1 pathway activity – revised, SAR follow-up (AID 2333). It is filed as functional.

The nature of assay [6]: THP-1 cell cytotoxicity, dose response, cytotoxicity control for non-replicating M. tuberculosis project (AID 489025). Type of assay: functional.
The next assay can be described thus: cells. It is filed as functional.
The next assay addresses Tumor necrosis factor (Homo sapiens, UniProt P01375). The assay is described as follows: analog potency on TNFa NF-kB signaling – cell-based, revised, SAR follow-up (AID 2337). It is filed as functional.
In another assay the test system is HEK293. The assay is described as follows: cells. The note with it: Homo sapiens.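 Note: cells exposed to compound for 14 hours overnight before viability readout.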
The target of the next assay is SUMO-activating enzyme (Homo sapiens, UniProt Q9UBT2). The assay is described as follows: blockers of UBC9-mediated SUMO conjugation – biochemical, AlphaScreen, SUMOylation inhibitor project, confirmation (AID 2018). Type of assay: functional. For orientation: Bead proximity is the source of the signal in Alpha formats.
Sequence of SUMO-activating enzyme (Q9UBE0 whole entry): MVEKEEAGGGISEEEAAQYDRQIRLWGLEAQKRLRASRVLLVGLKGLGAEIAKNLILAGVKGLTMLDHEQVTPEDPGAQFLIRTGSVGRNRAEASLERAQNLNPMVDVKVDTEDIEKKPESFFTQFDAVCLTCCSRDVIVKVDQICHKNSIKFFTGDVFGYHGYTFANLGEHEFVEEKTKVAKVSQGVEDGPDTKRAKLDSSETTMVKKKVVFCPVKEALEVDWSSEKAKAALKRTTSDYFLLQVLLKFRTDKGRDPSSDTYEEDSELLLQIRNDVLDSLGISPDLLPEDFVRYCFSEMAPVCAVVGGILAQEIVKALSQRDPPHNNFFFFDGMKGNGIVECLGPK
Sequence of SUMO-activating enzyme (Q9UBT2 whole entry): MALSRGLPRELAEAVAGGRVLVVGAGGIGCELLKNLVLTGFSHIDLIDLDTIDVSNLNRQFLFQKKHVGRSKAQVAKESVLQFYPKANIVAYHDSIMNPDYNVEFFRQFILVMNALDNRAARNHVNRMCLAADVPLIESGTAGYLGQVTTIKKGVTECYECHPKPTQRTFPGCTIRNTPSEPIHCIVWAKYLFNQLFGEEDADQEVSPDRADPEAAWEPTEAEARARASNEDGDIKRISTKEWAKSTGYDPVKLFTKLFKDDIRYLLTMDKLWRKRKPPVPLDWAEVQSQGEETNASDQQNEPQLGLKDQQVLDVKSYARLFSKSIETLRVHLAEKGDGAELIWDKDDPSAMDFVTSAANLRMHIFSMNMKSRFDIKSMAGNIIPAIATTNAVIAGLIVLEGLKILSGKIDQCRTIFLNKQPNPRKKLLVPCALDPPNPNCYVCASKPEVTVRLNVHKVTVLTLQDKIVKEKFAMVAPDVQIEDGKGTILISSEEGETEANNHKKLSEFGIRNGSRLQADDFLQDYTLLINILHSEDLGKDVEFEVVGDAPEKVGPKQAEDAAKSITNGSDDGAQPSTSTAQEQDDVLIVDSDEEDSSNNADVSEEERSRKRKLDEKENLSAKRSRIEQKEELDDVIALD
Assay [7] addresses DNA dC->dU-editing enzyme APOBEC-3G (Homo sapiens, UniProt Q9HC16). The assay is described as follows: Dose Response confirmation of small molecule APOBEC3G DNA Deaminase Inhibitors via a fluorescence-based single-stranded DNA deaminase assay. [Related pubchem assays (depositor defined):AID493012, AID493028]. It is filed as functional.
The target in assay [8] is T3, Polyadenylate-binding protein 1 (Homo sapiens, UniProt P11940). The assay is described as follows: MLLE binding blockers, Cy5 peptide tracer – biochemical, fluorescence polarization, Cy5-PAM2 peptide, secondary, miRNA deadenylation inhibitor project, dose response (AID 602260). Type of assay: functional. The note with it: read-out: IC50_Mean.
T3 sequence (P11940 whole entry, the tested form may be a part): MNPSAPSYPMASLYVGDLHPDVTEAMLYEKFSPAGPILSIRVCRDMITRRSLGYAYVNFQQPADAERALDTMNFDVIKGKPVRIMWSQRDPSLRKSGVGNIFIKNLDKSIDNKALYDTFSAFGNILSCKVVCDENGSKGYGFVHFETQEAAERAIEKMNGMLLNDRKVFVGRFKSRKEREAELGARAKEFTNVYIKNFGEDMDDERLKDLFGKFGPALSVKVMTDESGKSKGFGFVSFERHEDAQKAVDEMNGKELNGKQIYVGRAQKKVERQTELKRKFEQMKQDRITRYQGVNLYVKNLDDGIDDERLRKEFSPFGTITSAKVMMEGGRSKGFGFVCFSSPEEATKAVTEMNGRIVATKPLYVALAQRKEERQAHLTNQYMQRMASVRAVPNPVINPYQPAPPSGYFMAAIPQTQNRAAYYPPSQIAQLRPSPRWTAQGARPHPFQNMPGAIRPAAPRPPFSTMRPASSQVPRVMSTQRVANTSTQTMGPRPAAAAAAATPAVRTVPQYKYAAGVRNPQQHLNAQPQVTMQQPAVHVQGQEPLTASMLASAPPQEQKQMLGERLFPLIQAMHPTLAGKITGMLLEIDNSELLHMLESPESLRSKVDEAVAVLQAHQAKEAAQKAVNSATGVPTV
In assay [9] the target is T3, Polyadenylate-binding protein 1. The assay is described as follows: MLLE domain peptide-binding blockers, IC50 – biochemical, fluorescence polarization, FITC-PAM2 peptide, dose response (AID 602259). The following applies: read-out: IC50_Mean. Type of assay: functional. For orientation: Fluorescence polarisation rises when a labelled molecule tumbles more slowly, as on binding a larger partner.

The term CC50 denotes the concentration at which the toxic effect on the cells reaches its halfway point.

The source made the active and inactive calls.

Sequence of Tumor necrosis factor (P01375 whole entry): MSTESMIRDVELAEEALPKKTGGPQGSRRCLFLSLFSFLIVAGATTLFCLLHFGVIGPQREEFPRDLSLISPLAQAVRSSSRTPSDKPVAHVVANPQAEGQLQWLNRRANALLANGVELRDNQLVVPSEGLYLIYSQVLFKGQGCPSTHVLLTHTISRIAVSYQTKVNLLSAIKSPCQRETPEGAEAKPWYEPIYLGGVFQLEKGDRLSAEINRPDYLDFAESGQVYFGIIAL
Sequence of DNA dC->dU-editing enzyme APOBEC-3G (Q9HC16 whole entry): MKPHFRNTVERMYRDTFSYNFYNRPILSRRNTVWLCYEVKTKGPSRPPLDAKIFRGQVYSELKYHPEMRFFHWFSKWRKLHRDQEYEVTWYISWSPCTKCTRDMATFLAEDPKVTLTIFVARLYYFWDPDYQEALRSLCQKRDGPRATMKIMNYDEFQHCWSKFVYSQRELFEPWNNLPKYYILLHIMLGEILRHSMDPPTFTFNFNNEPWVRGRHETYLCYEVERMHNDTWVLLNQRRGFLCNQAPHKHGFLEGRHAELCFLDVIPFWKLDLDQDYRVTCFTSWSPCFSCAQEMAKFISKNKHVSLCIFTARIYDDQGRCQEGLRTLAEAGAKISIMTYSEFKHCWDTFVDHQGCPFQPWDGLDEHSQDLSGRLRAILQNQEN

For `COc1ccc(NC(=O)Cn2cc(C(=O)c3ccco3)c3ccccc32)cc1`, the IC50 (on Exodeoxyribonuclease V; in [1]) was > 119 µM (inactive) in each case.
On to `CC(=O)Nc1nc2ccccc2n1Cc1ccccc1Cl`, for which the IC50 is > 20 µM (inactive) in assay [2]; > 20 µM (inactive) in assay [5]; 4.15 µM (active) in “cells”; 19.9 µM (active) on Tumor necrosis factor; > 20 µM (inactive) in the assay with HEK293. Also, the CC50 in assay [3] was > 20 µM (active); in assay [4], 15.5 µM (active); in assay [6], 14.1 µM (active).
Consider `O=C(O)c1c(-n2cccc2)sc2c1CCCC2`, for which the IC50 (in assay [2]; in assay [5]; at Tumor necrosis factor; in the assay with HEK293) was > 20 µM (inactive) each time.
With `COc1cc(NC(=O)c2cncc(-c3ccc(C#N)cc3)c2)cc(C(=O)Nc2cccc(C(F)(F)F)c2)c1`, on SUMO-activating enzyme, the IC50 is 53.5 µM (active).
Consider `NC(=O)CC(NC(=O)Cc1cccc2ccccc12)c1ccc(NCCc2ccccc2F)c([N+](=O)[O-])c1` (stereo unspecified), for which the IC50 on SUMO-activating enzyme was 39 µM (active).
With `N#C/C(=C(/O)COC(=O)CSc1ccc(Cl)cc1)c1nc2ccccc2[nH]1`, the IC50 (in assay [2]; in assay [5]; at Tumor necrosis factor; with HEK293) was > 20 µM (inactive) each time.
In the case of `O=C(Nc1nc2ccccc2n1Cc1ccc(Cl)cc1)c1ccc(F)cc1`, the IC50 (in assay [2]; in assay [5]; at Tumor necrosis factor; with HEK293) was > 20 µM (inactive) in each case.
With `O=C(Nc1nc2ccccc2n1Cc1ccc(Cl)cc1)C1CCCCC1`, the IC50 (in [2]; in [5]; at Tumor necrosis factor; in the assay with HEK293) was > 20 µM (inactive) each time.
For the compound `Cc1ccc2c(c1)-c1c(ssc1=S)C(C)(C)N2C(=O)c1ccco1`, the IC50 in assay [7] was > 100 µM (inactive); in assay [8], > 66 µM (inactive); in [9] it was > 66 µM (inactive).
